Source: the CheMixHub ionic liquid set
± gives the uncertainty stated by the source.

Assay: xn = mol fraction of the nth substance listed

Q: With `CCO` + CCOP(=O)([O-])OCC.CC[N+]1(C)CCOCC1 as the compound, how does the viscosity (293.15 K, 100 kPa, x2 = 0) read?
A: 1.18 ± 0.07 mPa·s

Q: What about the viscosity (298.15 K, 100 kPa, x2 = 0) of the same compound?
A: 1.11 ± 0.07 mPa·s

Q: And the viscosity (303.15 K, 100 kPa, x2 = 0)?
A: 0.98 ± 0.06 mPa·s

Q: And the viscosity (308.15 K, 100 kPa, x2 = 0)?
A: 0.89 ± 0.05 mPa·s

Q: And the viscosity (313.15 K, 100 kPa, x2 = 0)?
A: 0.82 ± 0.05 mPa·s

Q: And the viscosity (318.15 K, 100 kPa, x2 = 0)?
A: 0.75 ± 0.05 mPa·s

Q: What about the viscosity (323.15 K, 100 kPa, x2 = 0) of the same compound?
A: 0.69 ± 0.04 mPa·s

Q: What about the viscosity (328.15 K, 100 kPa, x2 = 0) of the same compound?
A: 0.65 ± 0.04 mPa·s

Q: What about the viscosity (333.15 K, 100 kPa, x2 = 0) of the same compound?
A: 0.6 ± 0.04 mPa·s

Q: And the viscosity (338.15 K, 100 kPa, x2 = 0)?
A: 0.56 ± 0.03 mPa·s

Q: For `CCO` + CCOP(=O)([O-])OCC.CC[n+]1ccn(C)c1, which viscosity (318.15 K, 100 kPa, x2 = 0) is on record?
A: 0.75 ± 0.05 mPa·s

Q: For `CCO` + CC[N+]1(C)CCCC1.COP(=O)([O-])OC, which viscosity (308.15 K, 100 kPa, x2 = 0) is on record?
A: 0.9 ± 0.05 mPa·s

Q: What about the viscosity (318.15 K, 100 kPa, x2 = 0) of the same compound?
A: 0.75 ± 0.05 mPa·s

Q: And the viscosity (328.15 K, 100 kPa, x2 = 0)?
A: 0.63 ± 0.04 mPa·s

Q: What about the viscosity (333.15 K, 100 kPa, x2 = 0) of the same compound?
A: 0.58 ± 0.04 mPa·s

Q: With `CCO` + CC[n+]1ccccc1.N#C[N-]C#N as the compound, how does the viscosity (288.15 K, 100 kPa, x1 = 1) read?
A: 1.29 ± 0.13 mPa·s

Q: Which results are given for `CCO` + CC[n+]1ccn(C)c1.COP(=O)([O-])OC?
A: viscosity (298.15 K, 100 kPa, x2 = 0): 1.08 ± 0.01 mPa·s; viscosity (328.15 K, 100 kPa, x2 = 0): 0.646 ± 0.009 mPa·s

Q: Which viscosity (283.15 K, 101 kPa, x2 = 0) does the source give for `CCO` + CC[n+]1ccn(C)c1.COS(=O)(=O)[O-] here?
A: 1.44 ± 0.07 mPa·s

Q: And the viscosity (293.15 K, 101 kPa, x2 = 0)?
A: 1.18 ± 0.07 mPa·s

Q: And the viscosity (303.15 K, 101 kPa, x2 = 0)?
A: 0.98 ± 0.07 mPa·s

Q: And the viscosity (313.15 K, 101 kPa, x2 = 0)?
A: 0.83 ± 0.07 mPa·s

Q: And the viscosity (323.15 K, 101 kPa, x2 = 0)?
A: 0.7 ± 0.07 mPa·s

Q: For `CC[n+]1ccn(C)c1.O=C([O-])[C@@H]1CCCN1` + CC[n+]1ccn(C)c1.N#C[C-](C#N)C#N, which viscosity (298.15 K, 101 kPa, x2 = 0) is on record?
A: 1195 ± 130 mPa·s

Q: What does the source list for `CCO` + CC[n+]1ccn(C)c1.N#C[N-]C#N?
A: viscosity (298.15 K, 100 kPa, x2 = 0): 1.11 mPa·s; viscosity (303.15 K, 100 kPa, x2 = 0): 1.02 mPa·s; viscosity (308.15 K, 100 kPa, x2 = 0): 0.93 ± 0.2 mPa·s; viscosity (313.15 K, 100 kPa, x2 = 0): 0.85 ± 0.2 mPa·s; viscosity (313.15 K, 101 kPa, x1 = 1): 0.83 ± 0.04 mPa·s; viscosity (318.15 K, 100 kPa, x2 = 0): 0.78 ± 0.2 mPa·s; viscosity (323.15 K, 100 kPa, x2 = 0): 0.71 ± 0.2 mPa·s; viscosity (328.15 K, 101 kPa, x1 = 1): 0.64 ± 0.03 mPa·s

Q: For `CCCCn1cc[n+](CCOCCOCCOCC[n+]2ccn(CCCC)c2)c1.N#C[N-]C#N.N#C[N-]C#N` + CC[n+]1ccn(C)c1.N#C[N-]C#N + O=S(=O)([N-]S(=O)(=O)C(F)(F)F)C(F)(F)F.[Li+], which electrical conductivity (298 K, 100 kPa, x1 = 0.2237, x2 = 0.6826) is on record?
A: 0.491 ± 0.02 S/m

Q: What about the electrical conductivity (303 K, 100 kPa, x1 = 0.2237, x2 = 0.6826) of the same compound?
A: 0.589 ± 0.024 S/m

Q: What about the electrical conductivity (313 K, 100 kPa, x1 = 0.2237, x2 = 0.6826) of the same compound?
A: 0.812 ± 0.032 S/m

Q: And the electrical conductivity (323 K, 100 kPa, x1 = 0.2237, x2 = 0.6826)?
A: 1.1 ± 0.044 S/m

Q: What about the electrical conductivity (333 K, 100 kPa, x1 = 0.2237, x2 = 0.6826) of the same compound?
A: 1.42 ± 0.057 S/m

Q: And the electrical conductivity (343 K, 100 kPa, x1 = 0.2237, x2 = 0.6826)?
A: 1.79 ± 0.071 S/m

Q: With `CC[S+](CC)CCOCCOCCOCCOCC[S+](CC)CC.N#C[N-]C#N.N#C[N-]C#N` + CC[n+]1ccn(C)c1.N#C[N-]C#N + O=S(=O)([N-]S(=O)(=O)C(F)(F)F)C(F)(F)F.[Li+] as the compound, how does the electrical conductivity (298 K, 100 kPa, x1 = 0.2317, x2 = 0.6756) read?
A: 0.811 ± 0.032 S/m

Q: What about the electrical conductivity (303 K, 100 kPa, x1 = 0.2317, x2 = 0.6756) of the same compound?
A: 1.16 ± 0.046 S/m

Q: What about the electrical conductivity (313 K, 100 kPa, x1 = 0.2317, x2 = 0.6756) of the same compound?
A: 1.35 ± 0.054 S/m

Q: And the electrical conductivity (323 K, 100 kPa, x1 = 0.2317, x2 = 0.6756)?
A: 1.51 ± 0.061 S/m

Q: And the electrical conductivity (333 K, 100 kPa, x1 = 0.2317, x2 = 0.6756)?
A: 1.93 ± 0.077 S/m

Q: What about the electrical conductivity (343 K, 100 kPa, x1 = 0.2317, x2 = 0.6756) of the same compound?
A: 2.26 ± 0.091 S/m

Q: For `CC[S+](CC)CCOCC[S+](CC)CC.N#C[N-]C#N.N#C[N-]C#N` + CC[n+]1ccn(C)c1.N#C[N-]C#N + O=S(=O)([N-]S(=O)(=O)C(F)(F)F)C(F)(F)F.[Li+], which electrical conductivity (298 K, 100 kPa, x1 = 0.2884, x2 = 0.6258) is on record?
A: 0.519 ± 0.021 S/m

Q: And the electrical conductivity (303 K, 100 kPa, x1 = 0.2884, x2 = 0.6258)?
A: 0.632 ± 0.025 S/m

Q: And the electrical conductivity (313 K, 100 kPa, x1 = 0.2884, x2 = 0.6258)?
A: 0.863 ± 0.035 S/m

Q: What about the electrical conductivity (323 K, 100 kPa, x1 = 0.2884, x2 = 0.6258) of the same compound?
A: 1.17 ± 0.047 S/m

Q: And the electrical conductivity (333 K, 100 kPa, x1 = 0.2884, x2 = 0.6258)?
A: 1.54 ± 0.062 S/m

Q: And the electrical conductivity (343 K, 100 kPa, x1 = 0.2884, x2 = 0.6258)?
A: 1.95 ± 0.078 S/m

Q: Which viscosity (293.15 K, 101 kPa, x2 = 0) does the source give for `CCO` + CC[n+]1ccn(C)c1.N#C[S-] here?
A: 1.18 ± 0.07 mPa·s

Q: And the viscosity (303.15 K, 101 kPa, x2 = 0)?
A: 0.98 ± 0.07 mPa·s

Q: What does the source list for `Cc1ncc[nH]1` + CC[n+]1ccn(C)c1.[Cl-]?
A: viscosity (303.15 K, 101.33 kPa, x2 = 0.667): 394 ± 16 mPa·s; viscosity (313.15 K, 101.33 kPa, x2 = 0.667): 182.1 ± 6.1 mPa·s; viscosity (323.15 K, 101.33 kPa, x2 = 0.667): 101.5 ± 2.8 mPa·s; viscosity (333.15 K, 101.33 kPa, x2 = 0.667): 57.3 ± 1.4 mPa·s; viscosity (343.15 K, 101.33 kPa, x2 = 0.667): 38 ± 0.89 mPa·s; viscosity (353.15 K, 101.33 kPa, x2 = 0.667): 27 ± 0.63 mPa·s

Q: With `CCO` + CC[n+]1ccn(C)c1.[I-] as the compound, how does the electrical conductivity (298.15 K, 100 kPa, x2 = 0) read?
A: 5.54e-05 ± 3.3e-06 S/m

Q: Which viscosity (308.15 K, 100 kPa, x2 = 0) does the source give for `CCO` + CC[n+]1ccn(CCOC)c1.N#C[S-] here?
A: 0.902 ± 0.049 mPa·s

Q: What does the source list for `CCO` + CC[n+]1ccn(CCOC)c1.O=S(=O)([N-]S(=O)(=O)C(F)(F)F)C(F)(F)F?
A: viscosity (288.15 K, 100 kPa, x2 = 0): 1.334 ± 0.014 mPa·s; viscosity (293.15 K, 100 kPa, x2 = 0): 1.202 ± 0.012 mPa·s; viscosity (298.15 K, 100 kPa, x2 = 0): 1.111 ± 0.011 mPa·s; viscosity (303.15 K, 100 kPa, x2 = 0): 1.003 ± 0.01 mPa·s; viscosity (308.15 K, 100 kPa, x2 = 0): 0.907 ± 0.009 mPa·s; viscosity (313.15 K, 100 kPa, x2 = 0): 0.83 ± 0.008 mPa·s; viscosity (318.15 K, 100 kPa, x2 = 0): 0.76 ± 0.008 mPa·s

Q: Which viscosity (278.15 K, 100 kPa, x1 = 0.601) does the source give for `CCC=C[n+]1ccn(C)c1C.O=[N+]([O-])c1cn[n-]c1` + COCCOCCOCCOCCOC here?
A: 267 ± 12 mPa·s

Q: And the viscosity (278.15 K, 100 kPa, x1 = 0.952)?
A: 4300 ± 400 mPa·s

Q: And the viscosity (283.15 K, 100 kPa, x1 = 0.9)?
A: 1510 ± 110 mPa·s

Q: And the viscosity (288.15 K, 100 kPa, x1 = 0.9)?
A: 864 ± 54 mPa·s

Q: What about the viscosity (288.15 K, 100 kPa, x1 = 0.952) of the same compound?
A: 1210 ± 84 mPa·s

Q: What about the viscosity (293.15 K, 100 kPa, x1 = 0.601) of the same compound?
A: 87 ± 2 mPa·s

Q: What about the viscosity (298.15 K, 100 kPa, x1 = 0.701) of the same compound?
A: 121 ± 3 mPa·s

Q: What about the viscosity (298.15 K, 100 kPa, x1 = 0.952) of the same compound?
A: 439 ± 21 mPa·s

Q: And the viscosity (303.15 K, 100 kPa, x1 = 0.801)?
A: 138 ± 4 mPa·s

Q: What about the viscosity (313.15 K, 100 kPa, x1 = 0.9) of the same compound?
A: 117 ± 3 mPa·s

Q: And the viscosity (323.15 K, 100 kPa, x1 = 0.952)?
A: 81 ± 2 mPa·s
